Assays:
Assay type in all cases: in vivo
[1] = tested on: two spotted spidermite (Tetranychus urticae); assay: Tetranychus urticae spray test OP-resistant (French bean leaf disks); settings: for Efficacy in % after 2 d: mortality after 2 d
From the text: (§1) The expected activity for a given combination of two active compounds can be calculated according to S. R. Colby, Weeds 15 (1967), 20-22 as follows:
(§2) • X is the kill rate, expressed in % of the untreated control, when active compound A is applied at an application rate of m g/ha or at a concentration of m ppm, • Y is the kill rate, expressed in % of the untreated control, when active compound B is applied at an application rate of n g/ha or at a concentration of n ppm and • E is the kill rate, expressed in % of the untreated control, when active compounds A and B is applied at application rates of m and n g/ha or at a concentration of m and n ppm, then
(§3) If the observed insecticidal efficacy of the combination is higher than the one calculated as “E”, then the combination of the two compounds is more than additive, i.e., there is a synergistic effect.
(§4) Solvent: 78.0 parts by weight acetone • 1.5 parts by weight dimethylformamide Emulsifier: alkylarylpolyglycol ether
(§5) To produce a suitable preparation of active compound, 1 part by weight of active compound is mixed with the stated amount of solvents and is diluted with water, containing an emulsifier concentration of 1000 ppm, to the desired concentration. To produce a suitable preparation of a spore suspension the spores are diluted with emulsifier containing water to the desired concentration. Further test concentrations are prepared by dilution with emulsifier containing water.
French bean (Phaseolus vulgaris) leaf disks which are heavily infested with all stages of the two spotted spidermite (Tetranychus urticae), are sprayed with a preparation of the active ingredient of the desired concentration.
After the specified period of time, mortality in % is determined. 100% means all spider mites have been killed and 0% means none of the spider mites have been killed. The mortality values determined thus are recalculated using the Colby-formula (see sheet 1).

[2] = tested on: mustard beetle larvae (Phaedon cochleariae); assay: Phaedon cochleariae spray test (Chinese cabbage leaf disks); settings: mortality after 6 d
From the text: as §1, §2, §3
Solvent: 78.0 parts by weight of acetone • • 1.5 parts by weight of dimethylformamide Emulsifier: alkylarylpolyglycol ether
as §5
Chinese cabbage (Brassica pekinensis) leaf disks are sprayed with a preparation of the active ingredient of the desired concentration. Once dry, the leaf disks are infested with mustard beetle larvae (Phaedon cochleariae).
After the specified period of time, mortality in % is determined. 100% means all beetle larvae have been killed and 0% means none of the beetle larvae have been killed. The mortality values determined thus are recalculated using the Colby-formula (see sheet 1).

[3] = tested on: green peach aphid (Myzus persicae); assay: Myzus persicae spray test (Chinese cabbage leaf disks); settings: for Efficacy in % after 1 d: mortality after 1 d; for Efficacy in % after 6 d: mortality after 6 d
From the text: as §1, §2, §3, §4, §5
Chinese cabbage (Brassica pekinensis) leaf disks infected with all instars of the green peach aphid (Myzus persicae), are sprayed with a preparation of the active ingredient of the desired concentration.
After the specified period of time, mortality in % is determined. 100% means all aphids have been killed; 0% means none of the aphids have been killed. The mortality values determined thus are recalculated using the Colby-formula (see sheet 1).

Compound: CCOP(=S)(OCC)Oc1nc(Cl)c(Cl)cc1Cl [Chlorpyrifos]
- Efficacy in % after 6 d ([1]; 4 g ai/ha, mortality after 6 d): 0%
- Efficacy in % after 2 d ([1]; 20 g ai/ha): 0%

Compound: N#CCNC(=O)c1cnccc1C(F)(F)F [Flonicamid]
- Efficacy in % after 2 d ([1]; 4 g ai/ha): 0%

Compound: O=C1C=C(N(Cc2ccc(Cl)nc2)CC(F)F)CO1 [Flupyradifurone]
- Efficacy in % after 2 d ([1]; 0.8 g ai/ha): 0%
- Efficacy in % after 2 d ([1]; 4 g ai/ha): 0%

Compound: O=C(NC(=O)c1c(F)cccc1F)Nc1cc(Cl)c(OC(F)(F)C(F)C(F)(F)F)cc1Cl (centres unmarked) [Lufenuron]
- Efficacy in % after 2 d ([1]; 20 g ai/ha): 0%

Compound: O=C(/N=c1\ccccn1Cc1ccc(Cl)nc1)C(F)(F)F [N-[(2E)-1-[(6-chloropyridin-3-yl)methyl]pyridin-2(1H)-ylidene]-2,2,2-trifluoroacetamide]
- Efficacy in % after 6 d ([2]; 100 g ai/ha): 0%

Compound: O=C(NC(=O)c1c(F)cccc1F)Nc1ccc(OC(F)(F)C(F)OC(F)(F)F)c(Cl)c1 (centres unmarked) [Novaluron]
- Efficacy in % after 6 d ([2]; 100 g ai/ha): 0%

Compound: Abamectin
- Efficacy in % after 6 d ([2]; 0.8 g ai/ha): 0%

Compound: Lepimectin
- Efficacy in % after 1 d ([3]; 4 g ai/ha): 0%
- Efficacy in % after 6 d ([3]; 4 g ai/ha): 0%
- Efficacy in % after 1 d ([3]; 20 g ai/ha): 0%
- Efficacy in % after 6 d ([3]; 20 g ai/ha): 0%

Compound: Milbemectin
- Efficacy in % after 6 d ([3]; 4 g ai/ha): 0%

Source: patent US20170071204A1, “ACTIVE COMPOUND COMBINATIONS HAVING IN[…]” (priority 2014, published 2017)
